Where a name gives a salt, the structure may show the parent alone. Active and inactive are the calls of the source.
Legend:
[1] = target: T1, Calcium/calmodulin-dependent protein kinase type IV (Homo sapiens, UniProt Q16566)
T1 sequence (Q16566 whole entry): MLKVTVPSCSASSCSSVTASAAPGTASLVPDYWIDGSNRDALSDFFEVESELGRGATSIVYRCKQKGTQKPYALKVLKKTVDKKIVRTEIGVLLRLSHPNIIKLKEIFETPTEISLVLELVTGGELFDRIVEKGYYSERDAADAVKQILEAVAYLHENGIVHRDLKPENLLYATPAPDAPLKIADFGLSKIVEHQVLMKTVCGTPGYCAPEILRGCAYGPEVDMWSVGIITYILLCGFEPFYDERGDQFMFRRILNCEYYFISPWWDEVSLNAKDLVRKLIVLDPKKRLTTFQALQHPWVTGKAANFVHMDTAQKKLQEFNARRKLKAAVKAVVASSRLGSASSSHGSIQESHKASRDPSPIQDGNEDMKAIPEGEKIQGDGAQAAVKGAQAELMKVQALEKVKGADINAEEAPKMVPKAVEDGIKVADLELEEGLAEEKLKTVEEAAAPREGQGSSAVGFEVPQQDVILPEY

[2] = target: T2, Dual specificity mitogen-activated protein kinase kinase 5 (Homo sapiens, UniProt Q13163)
T2 sequence (Q13163 whole entry): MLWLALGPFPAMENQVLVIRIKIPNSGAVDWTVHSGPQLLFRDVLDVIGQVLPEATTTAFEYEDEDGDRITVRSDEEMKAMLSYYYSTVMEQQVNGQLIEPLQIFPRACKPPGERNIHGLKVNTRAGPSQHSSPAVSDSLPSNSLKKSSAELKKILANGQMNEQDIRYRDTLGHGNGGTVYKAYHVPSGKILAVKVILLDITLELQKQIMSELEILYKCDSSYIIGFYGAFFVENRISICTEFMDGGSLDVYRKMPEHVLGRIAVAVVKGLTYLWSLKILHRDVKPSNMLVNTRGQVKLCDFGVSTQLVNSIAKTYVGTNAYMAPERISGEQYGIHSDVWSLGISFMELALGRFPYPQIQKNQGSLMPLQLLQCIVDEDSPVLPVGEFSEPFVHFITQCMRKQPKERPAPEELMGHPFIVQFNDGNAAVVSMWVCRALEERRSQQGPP

[3] = target: T3, MAP kinase-activated protein kinase 5 (Homo sapiens, UniProt Q8IW41)
T3 sequence (Q8IW41 whole entry): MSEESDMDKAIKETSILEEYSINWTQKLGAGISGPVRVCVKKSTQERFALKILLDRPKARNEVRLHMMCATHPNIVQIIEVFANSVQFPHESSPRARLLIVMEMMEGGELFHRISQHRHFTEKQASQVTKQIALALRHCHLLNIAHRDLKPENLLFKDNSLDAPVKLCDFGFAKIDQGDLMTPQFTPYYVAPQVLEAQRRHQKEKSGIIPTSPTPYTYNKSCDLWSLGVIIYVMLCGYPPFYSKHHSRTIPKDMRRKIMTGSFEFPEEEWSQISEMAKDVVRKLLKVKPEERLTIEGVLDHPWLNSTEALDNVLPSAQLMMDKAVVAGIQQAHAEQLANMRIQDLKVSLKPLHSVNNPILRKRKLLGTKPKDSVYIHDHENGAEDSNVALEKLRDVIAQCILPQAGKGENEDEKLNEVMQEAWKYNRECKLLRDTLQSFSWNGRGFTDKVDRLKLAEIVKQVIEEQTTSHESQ

[4] = target: T4, Serine/threonine-protein kinase Nek2 (Homo sapiens, UniProt P51955)
T4 sequence (P51955 whole entry): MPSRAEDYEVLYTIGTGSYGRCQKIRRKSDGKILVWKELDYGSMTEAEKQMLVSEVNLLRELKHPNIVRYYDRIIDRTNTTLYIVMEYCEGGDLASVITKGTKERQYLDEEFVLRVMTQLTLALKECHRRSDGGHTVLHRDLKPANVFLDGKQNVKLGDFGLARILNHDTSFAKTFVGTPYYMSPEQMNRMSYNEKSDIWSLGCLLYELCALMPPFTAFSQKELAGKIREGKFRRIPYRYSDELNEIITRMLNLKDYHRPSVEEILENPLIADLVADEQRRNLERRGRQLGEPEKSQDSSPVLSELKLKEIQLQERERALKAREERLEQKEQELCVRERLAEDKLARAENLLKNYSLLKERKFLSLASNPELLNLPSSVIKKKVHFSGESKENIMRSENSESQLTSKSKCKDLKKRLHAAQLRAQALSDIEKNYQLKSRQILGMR

[5] = target: Protein kinase C beta type (Homo sapiens, UniProt P05771)
[6] = target: Non-receptor tyrosine-protein kinase TYK2 (Homo sapiens, UniProt P29597)
Also: in the data inactive means no Kd found up to 30 µM.

Sequence of Non-receptor tyrosine-protein kinase TYK2 (P29597 whole entry): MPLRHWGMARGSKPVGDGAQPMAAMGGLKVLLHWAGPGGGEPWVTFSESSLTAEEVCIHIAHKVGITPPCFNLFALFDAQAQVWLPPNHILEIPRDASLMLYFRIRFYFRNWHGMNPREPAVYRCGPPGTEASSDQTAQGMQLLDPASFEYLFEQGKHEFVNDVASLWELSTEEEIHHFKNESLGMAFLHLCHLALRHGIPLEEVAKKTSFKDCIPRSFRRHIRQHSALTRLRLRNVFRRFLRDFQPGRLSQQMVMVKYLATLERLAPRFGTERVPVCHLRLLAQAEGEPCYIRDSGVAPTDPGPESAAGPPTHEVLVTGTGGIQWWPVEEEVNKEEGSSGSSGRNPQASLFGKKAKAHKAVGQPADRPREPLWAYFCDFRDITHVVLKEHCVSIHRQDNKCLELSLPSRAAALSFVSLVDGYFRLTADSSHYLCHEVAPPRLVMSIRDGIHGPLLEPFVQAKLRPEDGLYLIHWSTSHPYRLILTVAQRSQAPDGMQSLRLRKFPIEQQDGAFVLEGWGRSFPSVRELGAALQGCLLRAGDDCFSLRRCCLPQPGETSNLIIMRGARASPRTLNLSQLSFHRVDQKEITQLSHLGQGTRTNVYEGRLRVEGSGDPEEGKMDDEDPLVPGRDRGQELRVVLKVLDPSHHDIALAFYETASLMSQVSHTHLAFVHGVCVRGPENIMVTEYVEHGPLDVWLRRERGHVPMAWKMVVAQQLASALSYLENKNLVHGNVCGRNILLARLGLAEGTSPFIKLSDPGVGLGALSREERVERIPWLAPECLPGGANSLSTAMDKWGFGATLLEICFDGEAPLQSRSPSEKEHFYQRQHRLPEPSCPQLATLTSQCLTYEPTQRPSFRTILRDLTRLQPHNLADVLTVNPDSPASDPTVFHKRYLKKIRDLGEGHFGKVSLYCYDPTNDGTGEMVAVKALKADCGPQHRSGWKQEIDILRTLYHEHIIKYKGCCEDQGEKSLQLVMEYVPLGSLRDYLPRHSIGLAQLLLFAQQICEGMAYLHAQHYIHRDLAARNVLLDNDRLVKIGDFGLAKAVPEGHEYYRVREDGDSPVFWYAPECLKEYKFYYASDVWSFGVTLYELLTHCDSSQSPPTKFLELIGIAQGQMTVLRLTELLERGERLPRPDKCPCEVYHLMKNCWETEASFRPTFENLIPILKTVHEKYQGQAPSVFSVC
Sequence of Protein kinase C beta type (P05771 whole entry): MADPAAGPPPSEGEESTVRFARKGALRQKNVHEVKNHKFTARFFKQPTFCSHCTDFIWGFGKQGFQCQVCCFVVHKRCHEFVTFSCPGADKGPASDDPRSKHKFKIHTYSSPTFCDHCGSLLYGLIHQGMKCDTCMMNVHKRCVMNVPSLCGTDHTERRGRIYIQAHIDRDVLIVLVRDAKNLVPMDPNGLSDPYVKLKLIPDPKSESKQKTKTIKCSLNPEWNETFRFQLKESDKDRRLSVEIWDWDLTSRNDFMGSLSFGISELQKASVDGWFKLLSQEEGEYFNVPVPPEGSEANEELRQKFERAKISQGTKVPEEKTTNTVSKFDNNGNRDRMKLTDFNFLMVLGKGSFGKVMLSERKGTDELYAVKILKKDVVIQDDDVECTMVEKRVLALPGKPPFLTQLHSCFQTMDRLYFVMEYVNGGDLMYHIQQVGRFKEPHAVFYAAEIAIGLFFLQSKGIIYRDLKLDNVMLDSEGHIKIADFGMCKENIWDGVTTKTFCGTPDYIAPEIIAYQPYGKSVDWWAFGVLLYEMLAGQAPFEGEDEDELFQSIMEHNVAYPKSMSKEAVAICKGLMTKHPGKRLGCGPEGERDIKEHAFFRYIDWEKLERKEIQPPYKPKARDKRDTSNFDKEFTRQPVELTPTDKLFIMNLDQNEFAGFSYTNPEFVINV

Row | Compound | Kd [1] | Kd [2] | Kd [3] | Kd [4] | Kd [5] | Kd [6]
1 | NC(=O)Nc1cc(-c2cccc(F)c2)sc1C(=O)N[C@H]1CCCNC1 [AZD-7762] | > 30 µM (inactive) | 0.147 µM (active) | > 30 µM (inactive) | > 30 µM (inactive) | > 30 µM (inactive) | > 30 µM (inactive)
2 | Cn1cnc2c(F)c(Nc3ccc(Br)cc3F)c(C(=O)NOCCO)cc21 [BINIMETINIB] | > 30 µM (inactive) | > 30 µM (inactive) | > 30 µM (inactive) | > 30 µM (inactive) | > 30 µM (inactive) | > 30 µM (inactive)
3 | Cc1cc(Nc2ncc(Cl)c(Nc3ccccc3S(=O)(=O)C(C)C)n2)c(OC(C)C)cc1C1CCNCC1 [CERITINIB] | 0.635 µM (active) | > 30 µM (inactive) | > 30 µM (inactive) | > 30 µM (inactive) | > 30 µM (inactive) | > 30 µM (inactive)
4 | COc1c(OCCCN2CCOCC2)ccc2c1N=C(NC(=O)c1cnc(N)nc1)N1CCN=C21 [COPANLISIB] | > 30 µM (inactive) | > 30 µM (inactive) | > 30 µM (inactive) | > 30 µM (inactive) | > 30 µM (inactive) | > 30 µM (inactive)
5 | COCC(=O)NC/C=C/c1ccc2ncnc(Nc3ccc(Oc4ccc(C)nc4)c(C)c3)c2c1 [CP-724714] | > 30 µM (inactive) | 1.26 µM (active) | > 30 µM (inactive) | > 30 µM (inactive) | > 30 µM (inactive) | > 30 µM (inactive)
6 | CCS(=O)(=O)N1CCN(c2ccc(Nc3ncc(C(N)=O)c(NC4CC4)n3)cc2)CC1 [Cerdulatinib Hydrochloride] | > 30 µM (inactive) | 0.656 µM (active) | > 30 µM (inactive) | > 30 µM (inactive) | > 30 µM (inactive) | 0.032 µM (active)
7 | Cc1cccc(-c2nn3c(c2-c2ccnc4ccc(C(N)=O)cc24)CCC3)n1 [GALUNISERTIB] | > 30 µM (inactive) | > 30 µM (inactive) | > 30 µM (inactive) | > 30 µM (inactive) | > 30 µM (inactive) | > 30 µM (inactive)
8 | CNC(=O)c1cccc2cc(Oc3ccnc4cc(OCC5(N)CC5)c(OC)cc34)ccc12 [LUCITANIB] | > 30 µM (inactive) | > 30 µM (inactive) | > 30 µM (inactive) | > 30 µM (inactive) | > 30 µM (inactive) | > 30 µM (inactive)
9 | CNC(=O)c1nn(C)c2c1C(C)(C)Cc1cnc(Nc3ccc(N4CCN(C)CC4)cc3)nc1-2 [MILCICLIB] | > 30 µM (inactive) | > 30 µM (inactive) | > 30 µM (inactive) | > 30 µM (inactive) | > 30 µM (inactive) | > 30 µM (inactive)
10 | NC1(c2ccc(-c3nc4ccn5c(=O)[nH]nc5c4cc3-c3ccccc3)cc2)CCC1 [MK-2206] | > 30 µM (inactive) | > 30 µM (inactive) | > 30 µM (inactive) | > 30 µM (inactive) | > 30 µM (inactive) | > 30 µM (inactive)

Second part, the compound after the results:

Row | Kd [1] | Kd [2] | Kd [3] | Kd [4] | Kd [5] | Kd [6] | Compound
11 | > 30 µM (inactive) | 2.66 µM (active) | > 30 µM (inactive) | > 30 µM (inactive) | > 30 µM (inactive) | > 30 µM (inactive) | Cc1cc(C(=O)NOCCO)c(Nc2ccc(I)cc2F)n(C)c1=O [AZD-8330]
12 | > 30 µM (inactive) | > 30 µM (inactive) | > 30 µM (inactive) | > 30 µM (inactive) | > 30 µM (inactive) | > 30 µM (inactive) | COc1cc2ncnc(Oc3cccc(NC(=O)Nc4cc(C(C)(C)C(F)(F)F)on4)c3)c2cc1OC [CEP-32496]
13 | > 30 µM (inactive) | > 30 µM (inactive) | > 30 µM (inactive) | > 30 µM (inactive) | > 30 µM (inactive) | > 30 µM (inactive) | C#Cc1cccc(Nc2ncnc3cc(OC)c(OCCCCCCC(=O)NO)cc23)c1 [CUDC-101]
14 | > 30 µM (inactive) | > 30 µM (inactive) | > 30 µM (inactive) | > 30 µM (inactive) | > 30 µM (inactive) | > 30 µM (inactive) | COc1ccc(S(=O)(=O)N(C(C)=O)c2ccccc2/C=C/c2cc[n+]([O-])cc2)cc1 [HMN-214]

Reference: ChEMBL document CHEMBL3991601, “The target landscape of clinical kinase drugs” (Science, 2017)
